Article PMC9667253 (eBioMedicine, 2022)

How the values were obtained:
[1] = target: E2F2 (Homo sapiens, UniProt Q14209); experiment: competition in biotin-bufalin pull-down from HepG2 lysate; format: cell-based
[2] = target: ZFP91 (zinc finger protein 91) (Homo sapiens, UniProt Q96JP5); experiment: MST; format: binding
ZFP91 (zinc finger protein 91), sequence (Q96JP5 2-570): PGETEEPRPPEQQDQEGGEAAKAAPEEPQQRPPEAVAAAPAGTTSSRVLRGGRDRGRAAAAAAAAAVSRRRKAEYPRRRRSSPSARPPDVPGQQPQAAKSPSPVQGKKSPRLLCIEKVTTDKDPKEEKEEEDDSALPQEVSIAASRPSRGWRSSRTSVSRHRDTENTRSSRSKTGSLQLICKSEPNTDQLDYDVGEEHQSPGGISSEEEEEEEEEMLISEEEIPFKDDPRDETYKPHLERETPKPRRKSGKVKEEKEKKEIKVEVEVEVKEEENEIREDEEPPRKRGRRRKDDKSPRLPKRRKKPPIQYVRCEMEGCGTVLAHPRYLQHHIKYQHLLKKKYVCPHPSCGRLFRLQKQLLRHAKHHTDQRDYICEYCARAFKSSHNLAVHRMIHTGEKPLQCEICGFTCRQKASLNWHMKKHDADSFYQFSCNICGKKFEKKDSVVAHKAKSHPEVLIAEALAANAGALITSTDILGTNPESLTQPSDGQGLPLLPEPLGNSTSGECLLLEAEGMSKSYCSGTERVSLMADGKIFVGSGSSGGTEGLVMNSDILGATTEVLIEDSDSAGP

E2F2, sequence (Q14209 whole entry): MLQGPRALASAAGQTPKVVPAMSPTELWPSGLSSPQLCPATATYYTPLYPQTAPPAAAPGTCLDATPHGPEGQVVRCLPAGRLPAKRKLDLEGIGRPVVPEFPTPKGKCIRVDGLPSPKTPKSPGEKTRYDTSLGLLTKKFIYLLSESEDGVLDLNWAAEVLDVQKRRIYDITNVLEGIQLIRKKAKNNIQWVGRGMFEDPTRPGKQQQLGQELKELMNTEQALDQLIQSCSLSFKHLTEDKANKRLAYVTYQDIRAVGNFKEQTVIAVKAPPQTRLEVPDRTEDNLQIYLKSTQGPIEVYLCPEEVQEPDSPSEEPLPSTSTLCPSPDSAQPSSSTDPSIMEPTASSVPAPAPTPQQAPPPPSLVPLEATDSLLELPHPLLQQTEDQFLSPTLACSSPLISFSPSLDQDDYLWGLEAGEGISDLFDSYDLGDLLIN

SMILES	competition in biotin-bufalin pull-down from HepG2 lysate [1]	Kd [2] [nM]
C[C@]12CC[C@@H](O)C[C@@H]1CC[C@@H]1[C@@H]2CC[C@]2(C)C(=O)CC[C@@H]12 [DHA, androsterone]	DHA significantly limited the binding of biotin-bufalin to E2F2	
O=c1cccco1 [α-Pyr, α-Pyrone]		900 ± 322
